Patent publication US20110212960A1, “NEW COMPOUNDS FOR THE TREATMENT OF CNS DISORDER” (BOEHRINGER INGELHEIM INTERNATIONAL GMBH, priority 2009, published 2011)

Key:
human PDE9A2 = biological target: T1, human PDE9A2 (Homo sapiens, UniProt O76083); assay: PDE9A2 enzymatic activity assay (scintillation proximity assay); format: biochemical; details: for inhibition at 10 µM: at 10 micromolar concentration, read-out: % inhibition of PDE9A2; for IC50: specific IC50 value lies within the given range, read-out: IC50 within range [nanomolar (nM)]
T1 construct: made in house; host or cells: Sf9 insect cells (infected; crude lysate used as enzyme source)
T1 sequence (O76083 1-533 isoform O76083-2): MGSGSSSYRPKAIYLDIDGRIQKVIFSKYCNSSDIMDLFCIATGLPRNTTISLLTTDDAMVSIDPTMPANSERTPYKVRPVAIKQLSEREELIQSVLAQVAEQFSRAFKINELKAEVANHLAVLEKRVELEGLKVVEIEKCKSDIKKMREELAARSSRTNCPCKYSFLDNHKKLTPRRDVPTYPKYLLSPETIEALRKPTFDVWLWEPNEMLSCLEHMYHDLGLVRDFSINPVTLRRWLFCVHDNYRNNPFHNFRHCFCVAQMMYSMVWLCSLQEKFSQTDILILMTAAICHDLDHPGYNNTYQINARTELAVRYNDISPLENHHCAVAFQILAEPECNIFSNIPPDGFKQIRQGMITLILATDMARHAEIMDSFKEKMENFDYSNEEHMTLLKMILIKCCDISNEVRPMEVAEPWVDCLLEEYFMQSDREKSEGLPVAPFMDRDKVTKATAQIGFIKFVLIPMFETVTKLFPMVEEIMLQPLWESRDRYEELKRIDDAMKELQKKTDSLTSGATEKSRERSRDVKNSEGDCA
Description: The PDE9A2 enzymatic activity assay was run as scintillation proximity assay (SPA), in general according to the protocol of the manufacturer (Amersham Biosciences, product number: TRKQ 7100).
As enzyme source, lysate (PBS with 1% Triton X-100 supplemented with protease inhibitors, cell debris removed by centrifugation at 13.000 rpm for 30 min) of SF 9 cell expressing the human PDE9A2 was used. The total protein amount included in the assay varied upon infection and production efficacy of the SF9 cells and lay in the range of 0.1-100 ng.
In general, the assay conditions were as follows: • total assay volume: 40 microliter • protein amount: 0.1-50 ng • substrate concentration (cGMP): 20 nanomolar; ˜1 mCi/l • incubation time: 60 min at room temperature • final DMSO concentration: 0.2-1%
The assays were run in 384-well format. The test reagents as well as the enzyme and the substrate were diluted in assay buffer. The assay buffer contained 50 mM Tris, 8.3 mM MgCl2, 1.7 mM EGTA, 0.1% BSA, 0.05% Tween 20; the pH of assay buffer was adjusted to 7.5. The reaction was stopped by applying a PDE9 specific inhibitor (e.g. compounds according to WO04099210 or WO04099211) in excess.
The activity of the positive control (minus the negative control=background) is set to 100% and activity in the presence of test compound is expressed relative to these 100%.

human PDE9A = human PDE9A (Homo sapiens, UniProt O76083); details: concentrations of up to 100 micromolar; cited from earlier work
human PDE9A, sequence (O76083 whole entry): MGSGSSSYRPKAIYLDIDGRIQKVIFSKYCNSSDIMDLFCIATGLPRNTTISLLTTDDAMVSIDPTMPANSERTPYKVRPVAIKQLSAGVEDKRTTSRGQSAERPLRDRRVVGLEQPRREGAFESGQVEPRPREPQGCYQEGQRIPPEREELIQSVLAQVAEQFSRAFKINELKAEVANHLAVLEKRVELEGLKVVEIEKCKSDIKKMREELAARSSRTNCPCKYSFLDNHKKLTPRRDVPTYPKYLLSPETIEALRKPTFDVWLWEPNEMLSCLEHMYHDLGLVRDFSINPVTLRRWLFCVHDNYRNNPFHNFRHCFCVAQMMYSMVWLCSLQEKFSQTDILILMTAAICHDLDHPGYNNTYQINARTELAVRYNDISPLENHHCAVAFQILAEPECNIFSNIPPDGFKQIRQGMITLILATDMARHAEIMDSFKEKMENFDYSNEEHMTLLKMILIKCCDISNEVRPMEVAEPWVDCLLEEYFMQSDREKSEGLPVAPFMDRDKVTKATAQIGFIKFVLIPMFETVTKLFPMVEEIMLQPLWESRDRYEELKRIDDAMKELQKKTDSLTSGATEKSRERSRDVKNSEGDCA

Q: For `O=C([C@H]1CCCC[C@@H]1c1nc2c(cnn2C2CCC(F)(F)CC2)c(=O)[nH]1)N1CCOCC1` (racemic) [Example 20], which inhibition at 10 µM (human PDE9A2) is on record?
A: Its inhibition at 10 µM is 71%.

Q: What about the IC50 (human PDE9A2) of the same compound?
A: Its IC50 is 201 to 5000 nM.

Q: With `O=C([C@H]1CCCC[C@@H]1c1nc2c(cnn2C2CCC(F)(F)CC2)c(=O)[nH]1)N1CCCC1` (racemic) [Example 21] as the compound, how does the inhibition at 10 µM (human PDE9A2) read?
A: The inhibition at 10 µM was 66%.

Q: What about the IC50 (human PDE9A2) of the same compound?
A: The IC50 was 1 to 200 nM.

Q: For `C#CCNC(=O)C1CCC1c1nc2c(cnn2C2CCC(F)(F)CC2)c(=O)[nH]1` (racemic) [Example 22], which inhibition at 10 µM (human PDE9A2) is on record?
A: Its inhibition at 10 µM is 90%.

Q: And the IC50 (human PDE9A2)?
A: Its IC50 is 1 to 200 nM.

Q: With `O=C([C@H]1C[C@@H]1c1nc2c(cnn2C2CCC(F)(F)CC2)c(=O)[nH]1)N1CCCCC1` (racemic) [Example 23] as the compound, how does the inhibition at 10 µM (human PDE9A2) read?
A: The inhibition at 10 µM was 92%.

Q: What about the IC50 (human PDE9A2) of the same compound?
A: Its IC50 is 201 to 5000 nM.

Q: For `O=C([C@H]1CC[C@@H]1c1nc2c(cnn2C2CCCC2)c(=O)[nH]1)N1CCCCC1` (racemic) [Example 24], which inhibition at 10 µM (human PDE9A2) is on record?
A: Its inhibition at 10 µM is 101%.

Q: And the IC50 (human PDE9A2)?
A: Its IC50 is 1 to 200 nM.

Q: With `O=C([C@H]1CCC[C@@H]1c1nc2c(cnn2C2CCC(F)(F)CC2)c(=O)[nH]1)N1CCCCC1` (racemic) [Example 25] as the compound, how does the inhibition at 10 µM (human PDE9A2) read?
A: Its inhibition at 10 µM is 95%.

Q: What about the IC50 (human PDE9A2) of the same compound?
A: The IC50 was 201 to 5000 nM.

Q: Which results are given for `O=C(C1CCCC1c1nc2c(cnn2C2CCCC2)c(=O)[nH]1)N1CCCCC1` (racemic) [Example 26]?
A: inhibition at 10 µM (human PDE9A2): 99%; IC50 (human PDE9A2): 1 to 200 nM

Q: For `CCOC(=O)[C@H]1CC[C@@H]1c1nc2c(cnn2C2CCCC2)c(=O)[nH]1` (racemic) [Example 27], which inhibition at 10 µM (human PDE9A2) is on record?
A: The inhibition at 10 µM was 98%.

Q: And the IC50 (human PDE9A2)?
A: Its IC50 is 1 to 200 nM.

Q: What does the source list for `O=c1[nH]c([C@@H]2CC[C@H]2CN2CC(F)(F)C(F)(F)C2)nc2c1cnn2C1CCC(F)(F)CC1` (racemic) [Example 28]?
A: inhibition at 10 µM (human PDE9A2): 94%; IC50 (human PDE9A2): 1 to 200 nM

Q: For `Cc1noc(C2CCC2c2nc3c(cnn3C3CCC(F)(F)CC3)c(=O)[nH]2)n1` (racemic) [Example 32], which inhibition at 10 µM (human PDE9A2) is on record?
A: Its inhibition at 10 µM is 91%.

Q: What about the IC50 (human PDE9A2) of the same compound?
A: The IC50 was 1 to 200 nM.

Q: With `O=c1[nH]c([C@@H]2CC[C@H]2CO)nc2c1cnn2C1CCC(F)(F)CC1` (racemic) [Example 33] as the compound, how does the inhibition at 10 µM (human PDE9A2) read?
A: The inhibition at 10 µM was 83%.

Q: What about the IC50 (human PDE9A2) of the same compound?
A: The IC50 was 201 to 5000 nM.

Q: With `O=C([C@@H]1CC[C@@H]1c1nc2c(cnn2C2CCC(F)(F)CC2)c(=O)[nH]1)N1CCCCC1` (racemic) [Example 34] as the compound, how does the inhibition at 10 µM (human PDE9A2) read?
A: The inhibition at 10 µM was 57%.

Q: What about the IC50 (human PDE9A2) of the same compound?
A: Its IC50 is 201 to 5000 nM.

Q: For `Cc1ccncc1-n1ncc2c(=O)[nH]c([C@H]3C[C@@H]3C)nc21` (racemic) [Example 36], which inhibition at 10 µM (human PDE9A2) is on record?
A: The inhibition at 10 µM was 90%.

Q: And the IC50 (human PDE9A2)?
A: The IC50 was 1 to 200 nM.

Q: For `O=C(O)[C@H]1CC[C@@H]1c1nc2c(cnn2C2CCC(F)(F)CC2)c(=O)[nH]1` (racemic) [Example 46], which inhibition at 10 µM (human PDE9A2) is on record?
A: The inhibition at 10 µM was 91%.

Q: And the IC50 (human PDE9A2)?
A: Its IC50 is 1 to 200 nM.

Q: Which inhibition at 10 µM (human PDE9A2) does the source give for `O=c1[nH]c([C@@H]2CC[C@H]2Cn2cccn2)nc2c1cnn2C1CCC(F)(F)CC1` (racemic) [Example 47] here?
A: Its inhibition at 10 µM is 89%.

Q: What about the IC50 (human PDE9A2) of the same compound?
A: The IC50 was 201 to 5000 nM.

Q: With `CCC(CC)n1ncc2c(=O)[nH]c(C3CCCC(C(=O)O)C3)nc21` (single isomer, unassigned) [Example 45] as the compound, how does the IC50 (human PDE9A2) read?
A: The IC50 was 201 to 5000 nM.

Q: With `CCOC(=O)[C@H]1C[C@H]1c1nc2c(cnn2C(CC)CC)c(=O)[nH]1` (stereo in doubt) [Example 43] as the compound, how does the IC50 (human PDE9A2) read?
A: Its IC50 is 201 to 5000 nM.

Q: With `O=c1[nH]c(C2CCC2)nc2c1cnn2C1CCCC1` [Example 29] as the compound, how does the inhibition at 10 µM (human PDE9A2) read?
A: The inhibition at 10 µM was 98%.

Q: And the IC50 (human PDE9A2)?
A: Its IC50 is 1 to 200 nM.

Q: With `O=c1[nH]c(C2CCC2)nc2c1cnn2C1CCC(F)(F)CC1` [Example 30] as the compound, how does the inhibition at 10 µM (human PDE9A2) read?
A: Its inhibition at 10 µM is 96%.

Q: And the IC50 (human PDE9A2)?
A: Its IC50 is 1 to 200 nM.

Q: With `Cc1ccncc1-n1ncc2c(=O)[nH]c(C3CCC3)nc21` [Example 31] as the compound, how does the inhibition at 10 µM (human PDE9A2) read?
A: The inhibition at 10 µM was 80%.

Q: What about the IC50 (human PDE9A2) of the same compound?
A: The IC50 was 201 to 5000 nM.

Q: Which inhibition at 10 µM (human PDE9A2) does the source give for `Cc1ccncc1-n1ncc2c(=O)[nH]c(C3CC(C)(C)C3)nc21` [Example 35] here?
A: Its inhibition at 10 µM is 50%.

Q: And the IC50 (human PDE9A2)?
A: Its IC50 is 201 to 5000 nM.

Q: With `Cc1ccccc1-n1ncc2c(=O)[nH]c(C3CC3)nc21` [Example 39] as the compound, how does the IC50 (human PDE9A2) read?
A: The IC50 was 201 to 5000 nM.

Q: Which “inhibition on the isolated enzyme” value (human PDE9A) does the source give for `CC(=O)Nc1ccc(-c2c[nH]c(=O)cn2)cc1` [SKF94120] here?
A: Its value is “no inhibition”.

Q: For `OCCN(CCO)c1nc(N2CCCCC2)c2nc(N(CCO)CCO)nc(N3CCCCC3)c2n1` [dipyridamole], which “inhibition on the isolated enzyme” value (human PDE9A) is on record?
A: The value was “no inhibition”.

Q: With `COc1ccc(C2CNC(=O)C2)cc1OC1CCCC1` (stereo not drawn) [rolipram] as the compound, how does the “inhibition on the isolated enzyme” value (human PDE9A) read?
A: The value was “no inhibition”.

Q: With `CCOC(=O)C1=C[C@]2(CC)CCCN3CCc4c(n1c1ccccc41)[C@@H]32` [vinpocetine] as the compound, how does the “inhibition on the isolated enzyme” value (human PDE9A) read?
A: Its value is “no inhibition”.
